Laboratory results as given in patent publication US10376486B2, “Compositions and methods for reactivating latent viral infections” (priority 2014, dated 2019).

Columns and labels:
[1] = systemic (intravenous), mini pig and rat model; cited from earlier work
[2] = system: PKCδ/θ-IκBα/ε-NF-κB signaling; experiment: Western blot of PKC isoforms, IκB isoforms and NF-κB/p65; assay type: cell-based; conditions: J-Lat A1 cells
Description: Western blot analysis was performed to detect the expression of PKC isoforms, IκB isoforms, as well as expression of NF-κB/p65.
Whole cell protein extracts were prepared with RIPA buffer containing proteinase inhibitors and phosphatase inhibitors (Sigma). Expression of the isoforms of PKC protein or NF-κB/p65 was evaluated using the PKC Isoform Sampler Antibody Kit (Cell Signaling, 9960S) or anti-NF-κB/p65 (Abcam). The level of phosphorylation of PKC was determined using anti-Phospho-Ser664-PKCδ, anti-Phospho-Ser643/676 PKCδ or anti-Phospho-T538-PKCθ (Millipore), and the level of phosphorylation of IκB was determined using p-IκBα(Ser32), p-IκBβ (Thr19/Ser23) or p-IκBε(Ser18/22) antibodies (Millipore).

[3] = system: CD4, CCR5 and CXCR4; experiment: Expression of HIV receptors/co-receptors in primary CD4+ T cells (RT-qPCR); assay type: cell-based, human; conditions: primary CD4+ T cells of healthy HIV-negative donors, 12 nM PEP005, 72 hours
Description: FIG. 12: PEP005 down-modulates the expression of CD4, CCR5 and CXCR4 and inhibits HIV infection of primary CD4+ T cells ex vivo. (A) PEP005 inhibits expression of HIV receptors/co-receptors. […] The expression of CD4, CCR5 and CXCR4 genes was evaluated using RT-qPCR after normalizing for GAPDH. (B) and (C) PEP005 inhibits HIV infection of primary CD4+ T cells ex vivo. Primary CD4+ T cells were pre-treated with 12 or 24 nM PEP005 overnight and infected with the virus. The CD4+ T cells were incubated for 5 days without PEP005. The cells were collected for RT-qPCR targeting the HIV LTR region (B), or supernatants were collected for p24 ELISA (C). *, p<0.05; **, p<0.01.
Recent studies have shown that Prostratin and analogs down-modulate HIV receptor/co-receptor expression, which could have protective effects against the viral infection. Conversely, SAHA, known to induce latent HIV expression in HIV infected individuals receiving ART, was reported to increase susceptibility of naive CD4+ T cells to HIV acquisition. […] Primary CD4+ T cells from peripheral blood samples of healthy HIV-negative donors were treated with 12 nM PEP005 and evaluated for the expression levels of CD4, CCR5, and CCXR4 using RT-qPCR. […] The virological outcome in the CD4+ T cell cultures in vitro was monitored for 5 days.

[4] = system: primary CD4+ T cells; experiment: Pro-inflammatory cytokine expression in primary CD4+ T cells (RT-qPCR); assay type: cell-based, human; conditions: CD4+ T cells of healthy HIV-negative donors, 6 or 12 nM PEP005, 24 or 72 hours
Description: CD4+ T cells were isolated from healthy donors and treated with 6 or 12 nM of PEP005 for 24 or 72 hours, and the relative expression of TNF-α (A), IFN-γ (B), IL-2 (C), and IL-6 (D) was quantified using RT-qPCR and normalized to GAPDH internal control.

[5] = system: J-Lat A1 cells, U1 cells, primary CD4+ T cells; experiment: Cell viability by MTT assay; assay type: cell-based; conditions: J-Lat A1 and U1 cell lines, 12 nM PEP005, 24 hours
Description: FIG. 7: PEP005 causes minimal cytotoxicity and T cell proliferation. To evaluate the impact of PEP005 on the cell viability, U1 cells (A), J-Lat A1 cells (B) and CD4+ T cells (C) were treated with 12 nM of PEP005 for 24 hours, the cell viability was examined with the MTT assay and the S-phase cell cycle progression was evaluated after BrdU incorporation using BrdU ELISA. 25-50 μM Etoposide or 100-150 μM Doxorubicin (Doxo) served as positive controls for MTT and BrdU assays respectively. Statistical analysis was performed in comparison with controls. **, p<0.01.
Cells were placed in 96-well plates and incubated for 24 or 72 h hrs with compounds. Cell viability was measured using MTT assay (Roche Laboratories), and cell proliferation/S-phase progression was determined by using BrdU ELISA kit (Cell signaling, #1863).

C/C=C(/C)C(=O)O[C@H]1C(C)=C[C@]23C(=O)[C@@H](C=C(CO)[C@@H](O)[C@]12O)[C@H]1[C@@H](C[C@H]3C)C1(C)C [PEP005, (1aR,2S,5R,5aS,6S,8aS,9R,10aR)-5,5a-Dihydroxy-4-(hydroxymethyl)-1,1,7,9-tetramethyl-11-oxo-1a,2,5,5a,6,9,10,10a-octahydro-1H-2,8a-methanocyclopenta[a]cyclpropa[e][10]annulen-6-yl (2Z)-2-methylbut-2-enoate]
maximum nonlethal dose [1]: > 0.073 mg/kg
expression of NF-κB/p65 ([2]; 12 nM PEP005): did not change
phosphorylation of IκB isoforms ([2]; 12 nM PEP005): induced phosphorylation of IκBα and IκBε, but not of IκBβ
expression of PKC proteins ([2]; 12 nM PEP005, 1 hr): modest up-regulation of PKCδ
phosphorylation of Ser643/Ser676 in PKCδ/θ ([2]; 12 nM PEP005, as early as 30 minutes post treatment): greater than a two-fold increase
expression of CD4, CCR5, and CXCR4 [3]: significant reduction
expression of TNF-α, IFN-γ, IL-2, and IL-6 [4]: no significant increase
expression of TNF-α ([4]; not statistically significant): tendency towards an up-regulation
cellular toxicity (MTT) [5]: minimal levels of cellular toxicity
